Laboratory results from patent publication US20230097801A1, “METHODS OF INCREASING CELL PHAGOCYTOSIS” (National Health Research Institutes, priority 2021, published 2023).
Entries after “also recorded” stand apart in the source; their conditions may differ. Like-named read-outs stand apart in the source and are kept apart here.

Key:
[1] = Plasma and tumor concentrations in Raji xenograft mice; assay type: in vivo; conditions: for concentration at 2 h: 2 hours after the last dose
Description: A pharmacokinetic study was conducted to evaluate plasma and tumor concentrations of Compound 34 using human B-cell lymphoma Raji xenograft tumors. One million Raji cells in culture medium and matrigel (1:1, v/v) were injected subcutaneously into the left flank region of each mouse. Treatments were initiated after randomization with inclusion of tumors at approximately 90 mm^3. A dosing vehicle for Compound 34 was prepared using 10% DMA: 40% PEG400: 50% (1% CMC) (v/v/v) and was dosed orally (p.o.) at 100 mg/kg once a day and 5 days a week (Q.D.*5). The mice were treated with either the vehicle control or Compound 34 for 3 weeks. They were sacrificed 2, 4, 8, or 24 hours after the last dose (n=4 per time point). Tumor and plasma were collected to determine concentrations of Compound 34.

CD47 [2] = assay: Flow cytometry, anti-human CD47 CC2C6 antibody binding on SK-OV-3 cell surface; assay type: cell-based
Description: (§1) Binding between CD47 and SIRPα was studied by measuring the level of CD47 binding using any suitable method. Flow cytometric analysis is useful to quantify the level of binding of CD47 to antibody CC2C6, which is then subjected to an immune-staining procedure using fluorochrome-conjugated secondary antibody followed by analysis of the immune-staining signal with a flow cytometry instrument to obtain the level of the CD47-CC2C6 binding. In another method, analysis of CD47 is performed using SIRPα-Fc formed from SIRPα fused with human IgG1, which is then subjected to an immune-staining procedure using fluorochrome-conjugated secondary antibody against human IgG1, followed by analysis of the immune-staining signal. SIRPα is expressed on the surface of a myeloid cell such as macrophage, monocyte, neutrophil, or dendritic cell. Alternatively, SIRPα is fused with human IgG1 to form a SIRPα-Fc recombinant protein. […] An anti-cancer agent (e.g., rituximab) can be used together with a compound of formula (I). Useful anti-cancer agents are described above including anti-PD-L1 antibodies, anti-CD20 antibodies, anti-HER2 antibodies, anti-EGFR antibodies, and anti-CD47 antibodies. Other suitable anti-cancer agents are chemotherapeutic agents such as doxorubicin, epirubicin, idarubicin, methotrexate, mitoxantrone, oxaliplatin, and cyclophosphamide.
SK-OV-3 cells were purchased from ATCC (Manassas, Va.). SK-OV-3 cells were maintained at 37° C. under 5% CO2 in McCoy's 5a medium (Gibco, ThermoFisher, Waltham, Mass.) with 10% fetal bovine serum (FBS) (Sigma-Aldrich, St Louis, Mo.), and 2 mM L-glutamine.
(§2) Antibody conjugates and extracellular domain of SIRPα used to analyze cell surface CD47 binding include anti-human CD47 CC2C6, 2D3, recombinant human SIRPα/CD172a Fc chimer protein, and anti-human IgG Fc. To determine inhibition of CD47 binding, cancer cells were treated with compounds of formula (I) at various concentrations for 4 days. Thereafter, the cells were washed with PBS containing 0.5% BSA (FACS buffer) followed by incubation with fluorochrome-labeled antibodies to human CD47 (i.e., CC2C6 and 2D3) at 1:50 dilution in FACS buffer for 30 minutes at 4° C. Compounds of formula (I) produced a dose-dependent inhibition of anti-CD47 CC2C6 antibody that recognized CD47 and SIRPα binding site on the tumor cell surface including B-cell lymphoma Raji cells, colon cancer cells DLD-1, and ovarian cancer SK-OV-3 cells (see FIGS. 1A, 1B, and 1C, respectively).

CD47 [3] = assay: Flow cytometry, anti-human CD47 CC2C6 antibody binding on Raji cell surface; assay type: cell-based
Description: as §1
Human B-cell lymphoma Raji cells were purchased from BCRC, Taiwan. Raji cells were maintained at 37° C. under 5% CO2 in RPMI-1640 medium (Hyclone, Marlborough, Mass.) supplemented with 10% fetal bovine serum (FBS) (SAFC, Sigma-Aldrich, St. Louis, Mo.) containing 2 mM L-glutamine (Hyclone, Marlborough, Mass.), 10 mM HEPES (Hyclone, Marlborough, Mass.) and 1 mM sodium pyruvate (Hyclone, Marlborough, Mass.).
as §2

O=C1NC[C@H](c2ccc(-c3csc(C(F)(F)F)c3)c(F)c2F)N1c1ccc2[nH]cnc2c1 [Compound 34]
tumor concentration ([1]; 100 mg/kg p.o. QD*5 for 3 weeks, next 22 hours (2 to 24 hours after the last dose)): ≥ 27,507 ng/g tissue weight
concentration at 2 h ([1]; mouse, plasma, oral, 100 mg/kg p.o. QD*5 for 3 weeks, read-out: plasma concentration): 18600 ng/mL
concentration at 24 h ([1]; mouse, plasma, oral, 100 mg/kg p.o. QD*5 for 3 weeks, 24 hours after the last dose): 5360 ng/mL
concentration at 2 h ([1]; mouse, tumor, oral, 100 mg/kg p.o. QD*5 for 3 weeks, read-out: tumor concentration): 29700 ng/g
tumor concentrations versus plasma (in words) ([1]; within 24 hours post treatment): much higher than those in plasma
IC50 (CD47 [2]; Ovarian Cancer (SK-OV3 cells), 4 days treatment, read-out: IC50, inhibition of CC2C6 binding): 190 nM
inhibition of binding of anti-human CD47 antibody CC2C6 (in words) (CD47 [2]; SK-OV-3 cells): effectively inhibited
IC50 (CD47 [3]; B-cell Lymphoma (Raji cells), 4 days treatment, read-out: IC50, inhibition of CC2C6 binding): 1100 nM
inhibition of binding of anti-human CD47 antibody CC2C6 (in words) (CD47 [3]; Raji cells): specifically affected anti-CD47 CC2C6 antibody; also recorded: effectively inhibited
